Measurements reported in patent US20220030850A1, “CRYOPRESERVATIVE COMPOSITIONS AND METHODS” (REGENTS OF THE UNIVERSITY OF MINNESOTA, priority 2015, published 2022).

What was measured:
H9-MSCs = assay: MSC vial freezing, post-thaw recovery and two-hour attachment (Example 5); type: cell-based, human; conditions: DMSO, room temperature pre-freeze incubation; 1° C./min; FIG. 21C
Description: Optimized solutions were prepared at double (2×) the final freezing concentration and added stepwise to cells in NORMOSOL-R (Hospira, Inc., Lake Forest, Ill.) at a 1:1 final volume ratio in a freezing vial (NALGENE, Nalge Nunc, Penfield, N.Y.). Control cells in media were similarly combined stepwise with DMSO at a 1:1 final volume ratio. Each of these vials was incubated at room temperature for 0 hours, one hour, or two hours. Experimental solutions were frozen using a 3° C./min cooling rate protocol described below, while DMSO solutions were frozen using a 1° C./min cooling rate protocol on a controlled rate freezer (Kryo 10 Series III, Planer PLC, Middlesex, United Kingdom). […]
Samples were submerged in a 37° C. bath to just under cap level, and agitated until only a small ice crystal was present. The cells were combined with acridine orange/propidium iodide (AO/PI) and counted using a hemocytometer. […]
Cell attachment of samples post-thaw was measured using a fluorescent plate reader. […] After two hours or 24 hours, these paired plates were washed with PBS, 1 μM calcein-acetoxymethyl (AM) dye was added, and then analyzed for fluorescence on a plate reader. Raw fluorescence values were used to calculate the number of live cells present in each well by correlating to a control curve of cells seeded at known densities. […]

Jurkat cells [1] = assay: High throughput factorial screening with Linear Mixed Effects statistical analysis of recovery; type: cell-based; conditions: statistical analysis of sugar and cooling rate
Description: In another evaluation, cells were combined with factorial combinations of the components listed in Table 5, using one component from each category. Plates including cells and solutions were frozen at cooling rates of 1′C/min, 3′C/min, 5′C/min, or 10′C/min.
Recovery was calculated by dividing the number of live cells post thaw—calculated using a control curve correlating calcein-acetoxymethyl (AM) fluorescence to cell count—by the number of live cells seeded pre-freeze (AO/PI counts taken prior to freezing). Recovery was normalized by dividing by the DMSO recovery on each plate, then multiplying by a standard DMSO recovery for each cooling rate. This normalized recovery was used to compare samples between different plates and different cooling rates.
Statistical analysis of the data was performed using a Linear Effects Model. The model associated with best fit was determined using Bayesian Information Criteria. […] The ten best combinations for Jurkats are summarized in Table 6 below, while the eight best combinations for MSCs are summarized in Table 7.
High throughput factorial screening experiments were performed on a Biomek Beckman FX 96 liquid handling robot. Briefly, 12.5 μl of an array of additives were transferred to nine 96-well plates containing 12.5 μl of different sugar alcohols. Cells (25 μl) diluted in either a sugar (in a solution of NORMOSOL-R; Hospira, Inc., Lake Forest, L) or a NORMOSOL-R blank solution were transferred to these nine plates to give a final volume of 50 μl in each well. Cells suspended in […] in media were also included as a row of each plate to serve as normalization wells for plate-to-plate comparison.
When all plate volume transfers were complete, silicone plate covers were used to seal each plate, and plates were transferred to a controlled rate freezer (Kryo 10 Series III, Planer PLC, Middlesex, United Kingdom) and frozen at cooling rates ranging from 1° C./min to 10° C./min. The concentrations of components present in solution are listed in Table 11, and were selected based on values described in literature or solubility limits. Component concentrations were 0 if not listed in a solution.
Plate samples were also assessed for viability using fluorescence. Briefly, a solution of calcein-AM/propidium iodide was prepared and a volume of 50 μl was added to each sample well of experimental 96-well plates, producing a 1:1 dilution. Plates were protected from light and placed in an incubator for 30 minutes to allow for calcein-AM digestion. A fluorescent plate reader (Synergy HT, BioTek Instruments, Inc., Winooski, Vt.) was used to determine the fluorescence in each well, which was correlated to live and dead cell counts using a control curve.
Viability was calculated for all samples by dividing the number of live cells by the number of total cells. Recovery was calculated directly by dividing the number of live cells post thaw by the number of live cells pre-freeze. Recovery for 96-well plate samples was further normalized; each experimental sample recovery was divided by the DMSO recovery on the same plate, and then multiplied by the standard DMSO recovery for the cooling rate of each experiment.
To assess the importance of the four explanatory variables of interest (Sugar, Rate, Additive and Alcohol), without neglecting the variation between each batch and between each plate within the batches, we sought to find the best Linear Mixed Effects (LME) model. […]

Jurkat cells [2] = assay: Raman microscopy cell penetration study of cryoprotectants; type: cell-based; conditions: Raman microscopy, at room temperature and at freezing temperatures
Description: Raman microscopy data provides an indication of the location of action of each cryopreservative. The images in FIG. 12 show Jurkat cells frozen in either glycerol (penetrating) or trehalose (non-penetrating).
These experiments were performed for most of the components described in the sections above both at room temperature and at freezing temperatures to assess whether penetration was temperature dependent.
Confocal Raman Microspectroscopy (CRM) measurements are conducted using Witec Confocal Raman Microscope System Alpha 300R (WITec, Wissenschaftliche Instrumente und Technologie GmbH, Ulm, Germany) with UHTS300 spectrometer and DV401 CCD detector. A wavelength of 532 nm Nd:YAG laser and 10 mW of power is used as excitation source. The laser is transferred to the microscopy in a singer fiber. A 100× air objective (NA 0.90; Nikon Instruments, Melville, N.Y.) is used for focusing the 532 nm excitation laser to the sample. Data collection and analysis are performed by Windows-based WitecControl_1.38 software.

Penetration (Jurkat cells [2])	SMILES	attachment of cells, effect of incubation prior to freezing (H9-MSCs)	cell recovery, effect of incubation prior to freezing (H9-MSCs)	cooling rate at which cells performed better with the sugar (Jurkat cells [1])
–	C[S+](C)[O-] [DMSO, dimethyl sulfoxide]	significantly reduced	did not alter	–
Yes	OC[C@H]1O[C@@](CO)(O[C@H]2O[C@H](CO)[C@@H](O)[C@H](O)[C@H]2O)[C@@H](O)[C@@H]1O [Sucrose]	–	–	10 °C and 1° C./min
